For eight molecules, IC50 results are on record in patent publication US20070117839A1, “Two cyclic cinnamide compound” (Eisai R&D Management Co., Ltd., priority 2005, published 2007).

For orientation: IC50 means the point on the concentration scale where inhibition reaches its midpoint.

The experiment concerns Aβ 42 Production. The experiment in a line: Quantification of Aβ peptide in culture of neurons from rat fetus brain (Aβ ELISA). The format is cell-based. The following applies: Neuron, 72 h; rat primary neuronal culture (embryonic day 18 Wistar rat cerebral cortex), cultured three days after addition of the compound, Aβx-42 ELISA of the medium; read-out: Activity for reducing Aβ 42 Production IC50. On the procedure: Quantification of Aβ Peptide in Culture of Neurons from Rat Fetus Brain
(1) Rat Primary Neuronal Culture
Primary neuronal cultures were prepared from the cerebral cortex of embryonic day 18 Wistar rats (Charles River Japan, Yokohama, Japan). Specifically, the embryos were aseptically removed from pregnant rats under ether anesthesia. The brain was isolated from the embryo and immersed in an ice-cold L-15 medium (Invitrogen Corp. Cat #11415-064, Carlsbad, Calif., USA, or SIGMA L1518, for example). The cerebral cortex was collected from the isolated brain under a stereoscopic microscope. The cerebral cortex fragments collected were enzymatically treated in an enzyme solution containing 0.25% trypsin (Invitrogen Corp. Cat #15050-065, Carlsbad, Calif., USA) and 0.01% DNase (Sigma D5025, St. Louis, Mo., USA) at 37° C. for 30 minutes to disperse the cells. Here, the enzymatic reaction was stopped by adding inactivated horse serum to the solution. The enzymatically treated solution was centrifuged at 1,500 rpm for five minutes to remove the supernatant. 5 to 10 mL of a medium was added to the resulting cell mass. Neurobasal medium (Invitrogen Corp. Cat #21103-049, Carlsbad, Calif., USA) supplemented with 2% B27 supplement (Invitrogen Corp. Cat #17504-044, Carlsbad, Calif., USA), 25 μM 2-mercaptoethanol (2-ME, WAKO Cat #139-06861, Osaka, Japan), 0.5 mM L-glutamine (Invitrogen Corp. Cat #25030-081, Carlsbad, Calif., USA), and Antibiotics-Antimycotics (Invitrogen Corp. Cat #15240-062, Carlsbad, Calif., USA) was used as the medium (Neurobasal/B27/2-ME). However, the above Neurobasal medium not supplemented with 2-ME (Neurobasal/B27) was used for the assay. The cells were redispersed by mild pipetting of the cell mass to which the medium was added. The cell dispersion was filtered through a 40-μm nylon mesh (Cell Strainer, Cat #35-2340, Becton Dickinson Labware, Franklin Lakes, N.J., USA) to remove the remaining cell mass, and thus a neuronal cell suspension was obtained. The neuronal cell suspension was diluted with the medium and then plated in a volume of 100 μl/well at an initial cell density of 5×10^5 cells/cm^2 in a 96-well polystyrene culture plate pre-coated with poly-L or D-lysine (Falcon Cat #35-3075, Becton Dickinson Labware, Franklin Lakes, N.J., USA coated with poly-L-lysine using the method shown below, or BIOCOAT™ cell environments Poly-D-lysine cell ware 96-well plate, Cat #35-6461, Becton Dickinson Labware, Franklin Lakes, N.J., USA). Poly-L-lysine coating was carried out as follows. 100 μg/ml of a poly-L-lysine (SIGMA P2636, St. Louis, Mo., USA) solution was aseptically prepared with a 0.15 M borate buffer (pH 8.5). 100 μl/well of the solution was added to the 96-well polystyrene culture plate and incubated at room temperature for one or more hours or at 4° C. overnight or longer. The coated 96-well polystyrene culture plate was washed with sterile water four or more times, and then dried or rinsed with, for example, sterile PBS or medium, and used for cell plating. The plated cells were cultured in the culture plate at 37° C. in 5% CO2-95% air for one day. Then, the total amount of the medium was replaced with a fresh Neurobasal/B27/2-ME medium, and then the cells were cultured for further three days.
The drug was added to the culture plate on Day 4 of culture as follows. The total amount of the medium was removed from the wells, and 180 μl/well of Neurobasal medium not containing 2-ME and containing 2% B-27 (Neurobasal/B27) was added thereto. A solution of the test compound in dimethyl sulfoxide (hereinafter abbreviated as DMSO) was diluted with Neurobasal/B27 at 10-fold of the final concentration. 20 μl/well of the dilution was added to and sufficiently mixed with the medium. The final DMSO concentration was 1% or less. Only DMSO was added to the control group.
The cells were cultured for three days after addition of the compound, and the total amount of the medium was collected. […]

Turning to `COc1cc(/C=C2\CC[C@H]3CC[C@@H](c4ccc(Cl)cc4)N3C2=O)ccc1-n1cnc(C)c1` [Example 56, (E)-(3S,8aS)-3-(4-chlorophenyl)-6-[3-methoxy-4-(4-methyl-1H-imidazol-1-yl)benzylidene]hexahydroindolizin-5-one], the concentration for half-maximal inhibition (IC50) turned out to be 55 nM.
With `COc1cc(/C=C2\CC[C@@H]3CCC[C@@H](c4ccc(F)cc4)N3C2=O)ccc1-n1cnc(C)c1` [Example 19, (E)-(6S,9aS)-6-(4-fluorophenyl)-3-[3-methoxy-4-(4-methyl-1H-imidazol-1-yl)benzylidene]octahydroquinolizin-4-one], the 50% inhibitory concentration (IC50) worked out at 129 nM.
`COc1cc(/C=C2\CC[C@H]3COC[C@@H](c4cc(F)c(F)c(F)c4)N3C2=O)ccc1-n1cnc(C)c1` [Example 83, (E)-(4R,9aS)-7-[3-methoxy-4-(4-methyl-1H-imidazol-1-yl)benzylidene]-4-(3,4,5-trifluorophenyl)hexahydropyrido[2,1-c][1,4]oxazin-6-one]: the half-maximal inhibitory concentration (IC50) is 37 nM.
Take `COc1cc(/C=C2\CC[C@H]3CCC[C@@H](c4cccc(F)c4)N3C2=O)ccc1-n1cnc(C)c1` [Example 41, (E)-(6S,9aR)-6-(3-fluorophenyl)-3-[3-methoxy-4-(4-methyl-1H-imidazol-1-yl)benzylidene]octahydroquinolizin-4-one]: the 50% inhibitory concentration (IC50) was 47 nM.
For the molecule `COc1cc(/C=C2\CC[C@@H]3C[C@H](O)C[C@@H](c4ccc(F)cc4)N3C2=O)ccc1-n1cnc(C)c1` [Example 11, (E)-(6S,8S,9aR)-6-(4-fluorophenyl)-8-hydroxy-3-[3-methoxy-4-(4-methyl-1H-imidazol-1-yl)benzylidene]octahydroquinolizin-4-one], the IC50 worked out at 97 nM.
Turning to `COc1cc(/C=C2\CC[C@H]3CCC[C@@H](c4ccccc4F)N3C2=O)ccc1-n1cnc(C)c1` [Example 43, (E)-(6S,9aR)-6-(2-fluorophenyl)-3-[3-methoxy-4-(4-methyl-1H-imidazol-1-yl)benzylidene]octahydroquinolizin-4-one], the IC50 stood at 66 nM.
Consider `COc1cc(/C=C2\CC[C@H]3COC[C@@H](c4ccc(F)c(F)c4)N3C2=O)ccc1-n1cnc(C)c1` [Example 95, (4R,9aS)-4-(3,4-difluorophenyl)-7-{1-[3-methoxy-4-(4-methyl-1H-imidazol-1-yl)phenyl]-(E)-methylidene}hexahydropyrido[2,1-c][1,4]oxazin-6-one], for which the IC50 was found to be 87 nM.
As for `COc1cc(/C=C2\CC[C@H]3CCC[C@@H](c4ccc(F)cc4)N3C2=O)ccc1-n1cnc(C)c1` [Example 8, (E)-(6S,9aR)-6-(4-fluorophenyl)-3-[3-methoxy-4-(4-methyl-1H-imidazol-1-yl)benzylidene]octahydroquinolizin-4-one], the figure is 73 nM.
